Test results published in PMC12707362, “Targeting Aurora Kinases as Essential Cell‐Cycle Regulators to Deliver Multi‐Stage Antimalarials Against Plasmodium Falciparum” (Angewandte Chemie (International Ed. in English), 2025).
Values after ≈ are worked out from the molar mass of the structure shown. Where two headings read alike, the source gives them in different places.

Tests used:
[1] = tested on: P. falciparum drug-sensitive NF54 (PfNF54) asexual intra-erythrocytic parasites; assay: SYBR Green I proliferation assay, PfNF54 asexual blood stages; format: cell-based, Plasmodium falciparum
Source text: Figure 1 Activity profile of Aur class anticancer inhibitors across the life cycle of Plasmodium falciparum parasites. a) Activity (IC50) of inhibitors (grouped based on specificity against human Aur) against P.falciparum drug‐sensitive (PfNF54) asexual intra‐erythrocytic parasites as measured with SYBR Green I fluorescence as an indicator of viability and proliferation. […] ABS, asexual blood stages of the parasite; HsAur, human Aur.
P. falciparum drug sensitive NF54 (PfNF54) and drug-resistant Dd2 (PfDd2, chloroquine, pyrimethamine and mefloquine resistant) strains were cultured in vitro in human O^+/A^+ erythrocytes (5% hematocrit) in complete medium at 2–5% parasitemia, 37 °C, shaking at 60 rpm under hypoxic conditions (90% N2, 5% O2 and 5% CO2). […] Gametocytogenesis was followed with daily media changes (including glucose) and ABS parasites removed with 50 mM N-acetylglucosamine (day 1–4 for stage II/III; days 3–7 for stage IV/V).
All inhibitors were dissolved in dimethyl sulfoxide (DMSO). […] Ring-stage ABS parasites (1% parasitemia, 1% hematocrit) were treated with compounds for 96 h at 37 °C with chloroquine disulphate (0.5 μM) as positive drug control. […] Luciferase activity was determined using a non-lysing D-luciferin substrate (1 mM in 0.1 M citrate buffer, pH 5.5, 100 μL) and bioluminescence was detected with a GloMax® - Multi Detection System with Instinct® software.

eLogD = format: physicochemical
Source text: (§1) In vitro ADME analysis for logD, kinetic solubility (PBS, pH 7.4), human liver microsome clearance and t1/2, rat hepatocyte clearance and t1/2, and protein binding in Albumax media (simulating the malaria parasite culture media) was all performed as per standard assays by TCG LifeSciences.

Kinetic solubility = format: physicochemical; conditions: aqueous buffer, kinetic from dmso stock; PBS, pH 7.4; read-out: Kin sol pH 7.4
Source text: as §1

recombinant PfArk1 = recombinant PfArk1 (Plasmodium falciparum, UniProt C6KSQ1); assay: KinaseSeeker three-hybrid split-luciferase competitive binding assay, PfArk1
Procedure: Supplementary Figure S3: (A) Single-point activity profile of selected inhibitors at 1 µM against recombinant PfArk-1 and PfArk-3 proteins, utilising a three-hybrid split-luciferase competitive binding assay (KinaseSeeker™).

[2] = Human liver microsome clearance; format: in vitro ADME; conditions: human liver microsomes; for microsomal CLint: read-out: HL microsome CLint; for half-life: read-out: HL microsome t1/2
Source text: as §1

Rat hepatocyte clearance = format: in vitro ADME; conditions: rat hepatocytes; for half-life: read-out: Rat hepatocyte t1/2
Source text: as §1

[3] = tested on: hepatocellular carcinoma (HepG2) cells; assay: Cytotoxicity counter-screening (MTT), HepG2; conditions: read-out: HepG2 CC50; 48 h, MTT
Procedure: HepG2 and CHO cells were maintained at 37 °C, under a humidified atmosphere of 5% CO2, in DMEM high glucose media (Gibco) supplemented with 10% heat-inactivated FBS and 1% (v/v) Penicillin-Streptomycin antibiotics. […] The supernatant was discarded, and the cell pellet was resuspended in 1 mL DMEM media for cell counting by Trypan Blue. To determine the toxicity, cells were resuspended and seeded at a concentration of 1x10^4 cells/well in a 96-well plate and incubated for 24 h^[9,10]. Cells were treated in duplicate with a 10-fold serial dilution starting at 100 ug/mL of inhibitor in new media. After 48 h incubation, the viable cells were measured using the MTT tetrazolium reduction assay, where sterile 25 µL of a 5 mg/mL MTT was added to each well and incubated for 4 h before the […] formazan crystals were dissolved with 100 µL DMSO (Merck) per well. The absorbance, a measure of intracellular reduction of MTT, was measured at 540 nm (Multiskan GO). Emetine (50 µM) was included as a positive drug control, and the background was subtracted from all data before being normalised to the untreated^[9,10].

[4] = Protein binding in Albumax II media; format: in vitro ADME; conditions: bovine
[5] = tested on: intracellular hemozoin formation in P. falciparum; assay: Cellular heme fractionation assay; format: cell-based, Plasmodium falciparum; conditions: intracellular fractions
Procedure: The assay set-up followed that described in^[30,32] optimised to a multi-well colourimetric assay for determining heme species in P. falciparum. Briefly, P. falciparum ring-staged parasites were incubated at 2xIC50 value of the test inhibitor for 24 hours. Thereafter, the incubated parasites (trophozoites) were harvested and isolated through various steps of a cellular fractionation process. The cellular fractionations allow for direct quantification of the three major heme species in the trophozoites, namely hemoglobin, free heme, and hemozoin. These heme species can be determined spectroscopically using the aqueous pyridine-ferrochrome method. This method is based on the principle that aqueous pyridine forms a low-spin complex with heme but not hemozoin, and since the absorbance obeys Beer’s law, it allows for the quantification of heme concentration in solution. The various heme fractions were recovered and measured as follows, after the P. falciparum trophozoite cells were harvested following exposure to probe inhibitors:
Water (100 µL) was added to lyse the cells, and the suspension was sonicated for 5 min. This was followed by the addition of 50 µL 0.2M HEPES buffer pH 7.5, and then centrifugation at 3600 rpm for 20 min. The resulting supernatant (containing hemoglobin) was then transferred into an adjacent set of wells on the same plate. To which 50 µL of each of 4% SDS, 0.3 M NaCl and 25% pyridine were added, respectively. Thereafter, 200 µL of the resulting solution ([…]) was transferred to a set of wells on a separate 96-well plate for UV-vis analysis^[32,33].
The pellet from the centrifugation step described above consists of heme and hemozoin. […] Then 50 µL each of HEPES 0.2 M pH 7.5, 0.3 M NaCl, and 25% pyridine were added, respectively. The mixture was centrifugated at 3600 rpm and the supernatant (250 µL) was transferred to adjacent wells on a separate 96-well plate. Thereafter, 150 µL of water was added and 200 µL of the mixture transferred to a set of wells on a separate plate for UV-vis analysis^[32,33].
To the remaining pellet, 50 µL each of water and 0.3 M NaOH were added, and the mixture was sonicated for 15 min. After 30 min of incubation at room temperature, 50 µL each of HEPES 0.2 M pH 7.5, 0.3 M HCl, and 25% pyridine were added, respectively. To the resulting mixture (250 µL), 150 µL of water was then added, and 200 µL of this was transferred to a set of wells on a separate 96-well plate for UV-vis analysis^[32,33].
Cell counts for the assay were performed using the flow cytometry method described in^[33]. Cell counting determines the number of trophozoites per sample and, therefore, allows for the quantification of the amount of heme found in each individual cell.

[6] = tested on: asexual intra-erythrocytic parasites; assay: Fixed-ratio isobologram analysis; conditions: additivity/indifference 0.8–1.4, antagonism >1.4
Procedure: Isobolograms were generated by plotting paired FIC values linearly, utilizing the average of three biological replicates, each performed in technical duplicates. The paired FIC values for each drug combination were analyzed, and the mean FIC values (ΣFIC) were calculated to delineate synergism (<0.8), additivity/indifference (0.8–1.4), or antagonism (>1.4).

recombinant PfNek1 = assay: KinaseSeeker single-point assay, PfNek1; format: binding, Plasmodium falciparum; conditions: single point 1 µM
[7] = Plasmodium falciparum, NF54, 96 h, read-out: Pf NF54 ABS IC50
[8] = Plasmodium falciparum, NF54, read-out: Pf NF54 ABS IC50
[9] = Plasmodium falciparum, NF54, 96 h, ring-stage ABS, 96 h, SYBR Green I, read-out: Pf NF54 ABS IC50
[10] = Plasmodium falciparum, NF54, bounds stated in text, read-out: Pf NF54 ABS IC50
[11] = ring-stage ABS, 96 h, SYBR Green I, read-out: Pf NF54 ABS IC50

recombinant PfArk1, sequence (C6KSQ1 entry or part of it): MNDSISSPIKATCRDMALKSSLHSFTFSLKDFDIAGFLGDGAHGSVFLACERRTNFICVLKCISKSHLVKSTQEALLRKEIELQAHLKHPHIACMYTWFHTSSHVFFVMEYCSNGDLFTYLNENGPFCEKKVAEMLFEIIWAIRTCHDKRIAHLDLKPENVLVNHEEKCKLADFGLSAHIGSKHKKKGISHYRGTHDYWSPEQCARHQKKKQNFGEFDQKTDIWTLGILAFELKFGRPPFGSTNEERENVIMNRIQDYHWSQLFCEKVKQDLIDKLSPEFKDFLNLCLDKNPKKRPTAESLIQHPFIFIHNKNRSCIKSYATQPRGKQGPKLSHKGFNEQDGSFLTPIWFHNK

Question: For `CCN1CCN(C(=O)Cc2ccc(Nc3ncc(F)c(Nc4ccc(C(=O)Nc5ccccc5Cl)cc4)n3)cc2)CC1` [AAi I, Aurora A Inhibitor I], which IC50 [1, 7] is on record?
Answer: 475 ± 90.1 nM

Question: And the IC50 [1, 8]?
Answer: < 1000 nM

Question: For `O=C(Nc1c[nH]nc1-c1nc2ccc(CN3CCOCC3)cc2[nH]1)NC1CC1` [AT83, AT9283], which “eLogD pH 7.4” value (eLogD) is on record?
Answer: 2.2

Question: And the solubility kinetic (Kinetic solubility)?
Answer: 22.2 µM (≈ 8.47 µg/mL)

Question: What about the “inhibition of PfArk1” value (recombinant PfArk1; single point 1 µM) of the same compound?
Answer: 30%

Question: And the microsomal CLint [2]?
Answer: 3.5 µL/min/mg

Question: And the half-life [2]?
Answer: 395 min

Question: And the “Rat hepatocyte CLint” value (Rat hepatocyte clearance)?
Answer: 12.6 µL min^−1/10e6 cells

Question: What about the half-life (Rat hepatocyte clearance) of the same compound?
Answer: 55 min

Question: Which IC50 [1, 7] does the source give for `CCN(CCO)CCCOc1ccc2c(Nc3cc(CC(=O)Nc4cccc(F)c4)n[nH]3)ncnc2c1` [AZD-1152, AZD-1152-HQPA] here?
Answer: 753 nM

Question: And the IC50 [1, 8]?
Answer: < 1000 nM

Question: What about the CC50 [3] of the same compound?
Answer: 25.9 µM

Question: Which results are given for `O=C(Nc1cccc(Nc2nccc(Nc3cccc(C(F)(F)F)c3)n2)c1)C1CC1` [Aki III, Aurora kinase inhibitor III]?
Answer: IC50 [1, 9]: 819 nM; IC50 [1, 10]: < 1000 nM

Question: Which fraction unbound [4] does the source give for `COc1cc(N2CCC(N3CCN(C)CC3)CC2)ccc1Nc1ncc(Cl)c(Nc2ccccc2S(=O)(=O)C(C)C)n1` [TAE684, NVP-TAE684] here?
Answer: 0.2

Question: What about the IC50 [1, 9] of the same compound?
Answer: 280 ± 13 nM

Question: And the IC50 [1, 11]?
Answer: 279 nM

Question: And the “eLogD pH 7.4” value (eLogD)?
Answer: 3.4

Question: What about the solubility kinetic (Kinetic solubility) of the same compound?
Answer: 198 µM (≈ 122 µg/mL)

Question: And the IC50 (recombinant PfArk1)?
Answer: 146 ± 20 nM

Question: And the free heme level [5]?
Answer: significant increase in free heme

Question: And the hemozoin level [5]?
Answer: decrease in hemozoin formation

Question: What about the “ΣFIC50 in combination with CQ” value [6] of the same compound?
Answer: 1.3

Question: What about the “ΣFIC50 in combination with ML10” value [6] of the same compound?
Answer: 1.3

Question: What about the “effect on PfNek1” value (recombinant PfNek1) of the same compound?
Answer: 40%

Question: And the microsomal CLint [2]?
Answer: 25.4 µL/min/mg

Question: What about the half-life [2] of the same compound?
Answer: 55 min

Question: What about the “Rat hepatocyte CLint” value (Rat hepatocyte clearance) of the same compound?
Answer: 3.5 µL min^−1/10e6 cells

Question: What about the half-life (Rat hepatocyte clearance) of the same compound?
Answer: 197 min

Question: What does the source list for `COc1cc2c(Nc3ccc(NC(=O)c4ccccc4)cc3)ncnc2cc1OCCCN1CCOCC1` [ZM-39, ZM-447439]?
Answer: IC50 [1, 9]: < 250 nM; IC50 [1, 10]: < 1000 nM; IC50 [1, 11]: 235 nM; free heme level [5]: significant increase in free heme; hemozoin level [5]: decrease in hemozoin formation; ΣFIC50 in combination with CQ [6]: 1.4; CC50 [3]: 26.5 µM
